Source: patent US20250179057A1, “MEK IMMUNE ONCOLOGY INHIBITORS AND THERAPEUTIC USES THEREOF” (Immuneering Corporation, priority 2022, published 2025)
Structures can show the parent of a compound that is named as a salt.

How the values were obtained:
[1] = Plasma stability, mouse plasma (Balb/c; Table 5 head CD-1 Mouse); format: in vitro ADME; conditions: balb/c plasma, 2 μM, anti-coagulant K2-EDTA; for % Remaining at T120: 120 min; for half-life at 2 μM: mouse, pH 7.4, read-out: T1/2
Description: (§1) Individual stock solutions of propantheline and lovastatin were prepared at 10 mM in DMSO and were further diluted to 2 mM with DMSO.
(§2) Frozen matrices (Balb/c mouse, Wistar Han rat, Beagle dog, and human plasma containing K2EDTA as anti-coagulant) were thawed and centrifuged at 3100 rpm for 10 minutes at 4° C. to remove particulates. The lipid layer was then removed, and the supernatant was transferred to a new tube without disturbing the pellet. After the matrices were incubated at 37° C. for at least 10 minutes, the pH of each matrix was adjusted to pH 7.4, using 10% phosphoric acid or 1N sodium hydroxide as necessary. Test and control article stock solutions were spiked (2 μL) into matrix (1.998 mL) and mixed to final assay concentration of […]. Duplicate 30-μL aliquots of spiked plasma were transferred to matrix tubes in 96-well plate immediately after spiking for timepoints of 0, 30, 60, 120, 240, and 360 minutes. These tubes were then incubated at 37° C. with shaking and at each timepoint, the corresponding tubes containing samples were quenched with 180 μL of cold acetonitrile containing the internal standards. The quenched samples were vortex-mixed briefly and stored refrigerated. After the final time point (360 minutes), the plates with all quenched samples were vortex-mixed for 10 minutes and then centrifuged at 3100 rpm for 10 minutes at 4° C. to sediment the precipitated protein. The supernatant (50 μL) was transferred to a clean 96-well plate and diluted with 100 μL of water. The plates were stored refrigerated until analysis.
(§3) Data Analysis: Peak area ratios for IS-normalized test article and control article counts were used to calculate the percent remaining relative to the time zero (T0) value. As appropriate, results were plotted and further analyzed to calculate half-life (T1/2) values.
(§4) Mean peak area ratios were used to calculate the % remaining relative to the T0 value:
(§5) In this study, human, cynomolgus monkey, beagle dog, wistar hannover rat, and balb/c plasma stability was determined. Table 28 describes the results of the human plasma stability at 2 μM concentration and anti-coagulant K2-EDTA from 10 to 120 min. Table 29 describes the results of the cynomolgus monkey plasma stability at 2 μM concentration and anti-coagulant K2-EDTA. Table 30 describes the results of the beagle dog plasma stability at 2 μM concentration and anti-coagulant K2-EDTA. Table 31 describes the results of the wistar hannover rat plasma stability at 2 μM concentration and anti-coagulant K2-EDTA. Table 32 describes the results of the balb/c plasma stability at 2 μM concentration and anti-coagulant K2-EDTA.

[2] = test system: cynomolgus monkey hepatocytes; experiment: Hepatocyte stability, cynomolgus monkey; format: in vitro ADME; conditions: 2 μM, 0.5 million cells/ml
Description: (§6) In this study, human, cynomolgus monkey, beagle dog, wistar hannover rat, and balb/c mouse hepatocyle stability was determined.

[3] = Plasma stability, beagle dog plasma (K2EDTA); format: in vitro ADME; conditions: beagle dog plasma, 2 μM, anti-coagulant K2-EDTA; for % Remaining at T120: 120 min; for half-life at 2 μM: pH 7.4, read-out: T1/2
CYP2C9 = CYP2C9 (Homo sapiens, UniProt P11712); experiment: CYP450 panel inhibition in human liver microsomes, 2C9 (diclofenac); conditions: for CYP-2C9 (Diclofenac) mean percentage CYP inhibition: human liver microsomes, 10 μM, substrate diclofenac; for inhibition at 30 min, 10 µM: human, microsomes, pH 7.4
CYP2C9, sequence (P11712 whole entry): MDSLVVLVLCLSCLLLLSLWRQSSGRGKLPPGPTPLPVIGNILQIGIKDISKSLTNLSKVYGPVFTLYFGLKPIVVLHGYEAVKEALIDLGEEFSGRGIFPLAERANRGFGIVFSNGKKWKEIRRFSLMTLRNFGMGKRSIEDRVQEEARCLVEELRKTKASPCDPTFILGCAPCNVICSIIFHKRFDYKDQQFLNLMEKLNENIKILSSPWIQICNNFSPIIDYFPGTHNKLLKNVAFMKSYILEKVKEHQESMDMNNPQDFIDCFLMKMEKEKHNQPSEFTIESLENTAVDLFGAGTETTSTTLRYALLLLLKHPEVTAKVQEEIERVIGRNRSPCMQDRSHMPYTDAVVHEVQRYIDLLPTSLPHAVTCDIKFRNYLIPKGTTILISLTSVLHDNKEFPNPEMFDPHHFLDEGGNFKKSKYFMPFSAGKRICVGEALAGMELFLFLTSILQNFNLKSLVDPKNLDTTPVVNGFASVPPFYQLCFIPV
From the text: The quenched samples were stored refrigerated.

beagle dog hepatocytes = experiment: Hepatocyte stability, beagle dog; format: in vitro ADME; conditions: 2 μM, 0.5 million cells/ml
Description: as §6

balb/c mouse hepatocytes = experiment: Hepatocyte stability, balb/c mouse; format: in vitro ADME; conditions: 2 μM, 0.5 million cells/ml
Description: as §6

[4] = Plasma stability, rat plasma (Wistar Han / wistar hannover; Table 5 head SD Rat); format: in vitro ADME; conditions: wistar hannover rat plasma, 2 μM, anti-coagulant K2-EDTA; for % Remaining at T120: 120 min; for half-life at 2 μM: pH 7.4, read-out: T1/2
Description: as §1, §2, §3, §4, §5

[5] = Plasma stability, cynomolgus monkey plasma (K2-EDTA); format: in vitro ADME; conditions: for T1/2 / % Remaining at T120: 2 μM, anti-coagulant K2-EDTA; for % Remaining at T120: 120 min; for half-life at 2 μM: plasma (K2EDTA), pH 7.4, anti-coagulant K2-EDTA
Description: as §1, §2, §3, §4, §5

[6] = test system: wistar hannover rat hepatocytes; experiment: Hepatocyte stability, wistar hannover rat; format: in vitro ADME; conditions: 2 μM, 0.5 million cells/ml
Description: as §6

human hepatocytes = experiment: Hepatocyte stability, human; format: in vitro ADME; conditions: 2 μM, 0.5 million cells/ml; for % Remaining At T120 / T1/2: 120 min
Description: as §6

[7] = Plasma stability, human plasma (K2EDTA); format: in vitro ADME; conditions: human plasma, 2 μM, anti-coagulant K2-EDTA; for T1/2 / half-life at 2 μM: 10 to 120 min; for % Remaining at T120: 120 min; for half-life at 2 μM: pH 7.4, read-out: T1/2

| Compound | T1/2 [1] [h] | % Remaining at T120 [1] [%] | % Remaining At T120 [2] [%] | CLint (L/hr/kg) [2] [L/h/kg] | CLint (mL/min/kg) [2] [mL/min/kg] | T1/2 [2] [h] | T1/2 [3] [h] | % Remaining at T120 [3] [%] | CYP-2C9 (Diclofenac) mean percentage CYP inhibition (CYP2C9) [%] | % Remaining At T120 (beagle dog hepatocytes) [%] | CLint (L/hr/kg) (beagle dog hepatocytes) [L/h/kg] | CLint (mL/min/kg) (beagle dog hepatocytes) | T1/2 (beagle dog hepatocytes) [h] | % Remaining At T120 (balb/c mouse hepatocytes) [%] | CLint (L/hr/kg) (balb/c mouse hepatocytes) [L/h/kg] | % Remaining at T120 [4] [%] | % Remaining at T120 [5] [%] | % Remaining At T120 [6] [%] | % Remaining At T120 (human hepatocytes) [%] | % Remaining at T120 [7] [%] | also measured |
| --- | --- | --- | --- | --- | --- | --- | --- | --- | --- | --- | --- | --- | --- | --- | --- | --- | --- | --- | --- | --- | --- |
| CNS(=O)(=O)Nc1cccc(Cc2c(CN(C)C)c3cc(F)c(OC(=O)N(C)C)cc3oc2=O)c1F [Compound 25] | >2 | 99.9 | 80.4 | 0.886 | 14.8 | 6.33 | 9.88 | 90.1 | 28.0 | 62.7 | 2.51 | 41.9 | 2.97 | 72.0 | 3.88 | 95.5 | 107.3 | 60.0 | 99.9 | 112.1 | CLint (mL/min/kg) (balb/c mouse hepatocytes): 64.7 mL/min/kg; T1/2 (balb/c mouse hepatocytes): 4.22 h; T1/2 [4]: 55.43 h; T1/2 [5]: >2 h; CLint (L/hr/kg) [6]: 1.38 L/h/kg; CLint (mL/min/kg) [6]: 23.0 mL/min/kg; T1/2 [6]: 2.72 h; CLint (L/hr/kg) (human hepatocytes): 0.00218 L/h/kg; CLint (mL/min/kg) (human hepatocytes): 0.0363 mL/min/kg; T1/2 [7]: >2 h |
| CNS(=O)(=O)Nc1cccc(Cc2c(CN3CCNCC3)c3ccc(OC(=O)N(C)C)cc3oc2=O)c1Cl [Compound 246, 3-(2-chloro-3-((N-methylsulfamoyl)amino)benzyl)-2-oxo-4-(piperazin-1-ylmethyl)-2H-chromen-7-yl dimethylcarbamate hydrochloride] |  | 94.5 | 81.4 |  |  |  |  | 100.2 |  | 79.6 |  |  |  | 73.6 |  | 99.3 | 104.5 | 63.0 | 95.3 | 105.7 | half-life at 2 μM [1]: 18.5 h; half-life at 2 μM [3]: 60.5 h; inhibition at 30 min, 10 µM (CYP2C9): 19.4%; half-life at 2 μM [4]: > 2 h; half-life at 2 μM [5]: > 2 h; half-life at 2 μM [7]: > 2 h |
| CNS(=O)(=O)Nc1cccc(Cc2c(CN(C)C)c3ccc(OC(=O)N(C)C)cc3oc2=O)c1F [Compound 9] | 8.78 | 86.0 | 44.3 | 3.30 | 54.9 | 1.7 | >2 | 100.5 | 13.4 | 66.2 | 2.22 | 36.9 | 3.37 | 73.8 | 3.58 | 93.4 | 110.4 | 34.9 | 48.9 | 99.8 | CLint (mL/min/kg) (balb/c mouse hepatocytes): 59.7 mL/min/kg; T1/2 (balb/c mouse hepatocytes): 4.57 h; T1/2 [4]: 19.67 h; T1/2 [5]: >2 h; CLint (L/hr/kg) [6]: 2.84 L/h/kg; CLint (mL/min/kg) [6]: 47.3 mL/min/kg; T1/2 [6]: 1.32 h; CLint (L/hr/kg) (human hepatocytes): 1.93 L/h/kg; CLint (mL/min/kg) (human hepatocytes): 32.2 mL/min/kg; T1/2 (human hepatocytes): 1.93 h; T1/2 [7]: >2 h |
| CCS(=O)(=O)Nc1cccc(Cc2c(CN(C)C)c3ccc(OC(=O)N(C)C)cc3oc2=O)c1F [Compound 120] | 238.68 | 94.2 | 31.6 | 4.67 | 77.8 | 1.2 | >2 | 100.9 | 11.1 | 49.5 | 3.78 | 63.0 | 1.97 | 71.4 | 3.98 | 96.8 | 107.3 | 32.0 | 47.4 | 123.8 | CLint (mL/min/kg) (balb/c mouse hepatocytes): 66.3 mL/min/kg; T1/2 (balb/c mouse hepatocytes): 4.12 h; T1/2 [4]: 42.68 h; T1/2 [5]: >2 h; CLint (L/hr/kg) [6]: 3.07 L/h/kg; CLint (mL/min/kg) [6]: 51.2 mL/min/kg; T1/2 [6]: 1.22 h; CLint (L/hr/kg) (human hepatocytes): 2.02 L/h/kg; CLint (mL/min/kg) (human hepatocytes): 33.6 mL/min/kg; T1/2 (human hepatocytes): 1.85 h; T1/2 [7]: >2 h |
| CNS(=O)(=O)Nc1cccc(Cc2c(CN(C)C)c3ccc(OC(=O)N(C)C)cc3oc2=O)c1Cl [Compound 274, 3-(2-chloro-3-((N-methylsulfamoyl)amino)benzyl)-4-((dimethylamino)methyl)-2-oxo-2H-chromen-7-yl dimethylcarbamate] |  | 92.7 | 24.5 |  |  |  |  | 100.5 |  | 51.9 |  |  |  | 64.3 |  | 97.7 | 104.5 | 34.9 | 47.5 | 121.2 | half-life at 2 μM [1]: 126 h; half-life at 2 μM [3]: > 2 h; inhibition at 30 min, 10 µM (CYP2C9): 17.1%; half-life at 2 μM [4]: 42.3 h; half-life at 2 μM [5]: > 2 h; half-life at 2 μM [7]: > 2 h |
